Experiment: In vivo sublimation (disappearance) of pellets from subcutaneous implant sites
Design: species or system Sprague-Dawley male rats
Conditions: subcutaneous implant in neck scruff of rats, explanted pellet mass (FIG. 11)
Procedure: The in-vivo disappearance rates of hexamethylethane and adamantane pellets from subcutaneous implant sites in rats were assessed over a 16-week period. Forty six Sprague-Dawley male rats of similar age and weight were assigned into five treatment groups: hexamethylethane pellet implantation (Group H), adamantane pellet implantation (Group A), PLGA (Boehringer Ingelheim Resomer RG 504H) pellet implantation (Group P), a sham group for which surgery was performed without pellet implantation, and a control (no surgery) group. Pellets were individually weighed, and implanted into the neck scruff of rats. Explantation and reweighing of adamantane pellets was performed at 4 and 8 days, and 2, 4, 8, and 10 weeks; hexamethylethane pellets were explanted and weighed at 4 and 24 hours, and 4, 8, and 14 days.

in-vivo sublimation / disappearance period of pellets | Compound
over a period as short as one week | CC(C)(C)C(C)(C)C [hexamethylethane, 2,2,3,3-Tetramethylbutane]
over a period of at least two months | C1C2CC3CC1CC(C2)C3 [adamantane]

Reference: US8987340B2, “Sublimable sustained release delivery system and method of making same” (Oakwood Laboratories, LLC, priority 2005, dated 2015)
